From article doi:10.1101/2024.08.19.608619, “Discovery of potent SARS-CoV-2 nsp3 macrodomain inhibitors uncovers lack of translation to cellular antiviral response” (bioRxiv, 2024) come the findings set out here.

Converted amounts (≈) assume the structure as drawn.

Data set [1] in a line: Hepatic microsomal stability, HLM. Particulars: In vitro human liver microsomal stability; for perc_remaining_no_cofactor: no cofactor. The class given is in vitro ADME, human. Background: Liver microsomes are vesicles of endoplasmic reticulum, rich in cytochrome P450 enzymes.
Data set [2] in a line: Hepatic microsomal stability, MLM. It is filed as in vitro ADME.
The next data set is described as follows: LogD. Particulars: pH 7.4; In vitro LogD.
Data set [3] in a line: In vitro kinetic solubility. As to conditions: In vitro kinetic solubility, ph 7.4.
The nature of data set [4]: Permeability Papp (AB) MDR1/MDCKII. As to conditions: In vitro MDR1-MDCKII permeability; for papp_a_to_b_mean: A to B; for perc_recovery_a_to_b_mean: recovery A to B.
Where [5] appears, read: In vitro mouse liver microsomal stability.
Setting [6] is: In vitro mouse liver microsomal stability, no cofactor.

With `CNCc1cc(-c2cc3c(N[C@@H](c4ccc5c(c4)S(=O)(=O)CCC5)C(C)C)ncnc3[nH]2)co1` [ASAP-0010745], in data set [1], the clint was 57.0 µL/min/mg, the perc_remaining worked out at 40.0%, the t_half is recorded as 29.4 min and the perc_remaining_no_cofactor was determined as 110.0%. Besides, in data set [2] (setting [5]), the clint worked out at 52.0 µL/min/mg, the perc_remaining turned out to be 41.0% and the t_half is 32.2 min. In data set [2] (In vitro mouse liver microsomal stability; no cofactor), the perc_remaining_no_cofactor is 108.0%. In “LogD”, the logd was 2.1. This molecule displayed a solubility_mean in data set [3] of 321 µM (≈ 154 µg/mL). In data set [4] (mean), this molecule registered a papp_a_to_b_mean of 1.61 ×10⁻⁶ cm/s and a perc_recovery_a_to_b_mean of 90.5%.

As for `CC(C)[C@H](Nc1ncnc2[nH]c(-c3cnn(C)c3C#N)cc12)c1ccc2c(c1)OCCO2` [ASAP-0010980], in data set [1], the clint turned out to be 706.0 µL/min/mg, the perc_remaining turned out to be 1.0%, the t_half is on record as 2.4 min and the perc_remaining_no_cofactor came to 103.0%. In data set [2] (setting [5]), the clint came out at 257.0 µL/min/mg, the perc_remaining was 2.0% and the t_half is 6.5 min. In addition, in data set [2] (setting [6]), the perc_remaining_no_cofactor is on record as 113.0%. The logd in the data set “LogD” turned out to be 3.3. The molecule also came in with a solubility_mean in data set [3] of 15 µM (≈ 6.44 µg/mL). In data set [4] (no inhibitor), this molecule registered a papp_a_to_b_mean of 5.56 ×10⁻⁶ cm/s and a perc_recovery_a_to_b_mean of 39.3%.

With `CC(C)[C@@H](Nc1ncnc2[nH]c(-c3cnn(C)c3C#N)cc12)c1ccc2c(c1)OCCO2` [ASAP-0011033], in data set [1], the clint is 47.0 µL/min/mg, the perc_remaining is 46.0%, the t_half is reported as 35.4 min and the perc_remaining_no_cofactor was found to be 101.0%. For the same molecule, in data set [2] (setting [5]), the clint stood at 129.0 µL/min/mg, the perc_remaining came to 13.0% and the t_half is reported as 13.0 min. The perc_remaining_no_cofactor in data set [2] (setting [6]) worked out at 106.0%. The logd in the data set “LogD” is on record as 3.4. This molecule showed a solubility_mean in data set [3] of 20 µM (≈ 8.59 µg/mL). In data set [4] (no inhibitor), this molecule displayed a papp_a_to_b_mean of 5.11 ×10⁻⁶ cm/s and a perc_recovery_a_to_b_mean of 31.2%.

`CNC(=O)c1c[nH]c2ncnc(N[C@@H](c3ccc4c(c3)S(=O)(=O)CCC4)C(C)C)c12` [ASAP-0011156]: in data set [1], the clint worked out at 108.0 µL/min/mg, the perc_remaining turned out to be 17.0%, the t_half stood at 15.4 min and the perc_remaining_no_cofactor came out at 94.0%. Further, in data set [2] (setting [5]), the clint was determined as 113.0 µL/min/mg, the perc_remaining was 15.0% and the t_half is given as 14.7 min. Besides, the perc_remaining_no_cofactor in data set [2] (setting [6]) was determined as 108.0%. Further, in the data set “LogD”, the logd stood at 2.6. In addition, in data set [3], the solubility_mean was 204 µM (≈ 87.2 µg/mL). Besides, in data set [4] (no inhibitor), the papp_a_to_b_mean amounted to 0.857 ×10⁻⁶ cm/s and the perc_recovery_a_to_b_mean was 78.7%.

Take `CC(C)[C@H](Nc1ncnc2[nH]c(C(=O)N[C@@H]3CCN(C)C3)cc12)c1ccc2c(c1)S(=O)(=O)CCC2` [ASAP-0011196]: in data set [1], the clint came out at 3.0 µL/min/mg, the perc_remaining came out at 98.0%, the t_half is on record as 626.9 min and the perc_remaining_no_cofactor is 100.0%. Besides, in data set [2] (setting [5]), the clint came to 3.0 µL/min/mg, the perc_remaining turned out to be 104.0% and the t_half is 648.8 min. The perc_remaining_no_cofactor in data set [2] (setting [6]) came out at 107.0%. In “LogD”, the logd amounted to 1.4. This molecule also displayed a solubility_mean in data set [3] of 366 µM (≈ 182 µg/mL). Further, in data set [4] (no inhibitor), the papp_a_to_b_mean stood at 0.707 ×10⁻⁶ cm/s and the perc_recovery_a_to_b_mean was 103.0%.
